In patent publication US5858736A, “Preparation of lactams from aliphatic α,ω-dinitriles” (priority 1996, dated 1999):
≈ marks a conversion by molar mass, not a printed value.

Assays:
[1] = Solubility of dinitrile in the aqueous cell suspension; format: physicochemical; details: aqueous cell suspension of Acidovorax facilis 72W, two-phase above this concentration; read-out: concentration above which the solubility of the dinitrile was exceeded
Description: Into a 500 mL erlenmeyer flask equipped with magnetic stir bar was placed 50.0 g of frozen Acidovorax facilis 72W (ATCC 55746) cells (previously heat-treated at 50° C. for 1 h before freezing) and 450 mL of potassium phosphate buffer (20 mM, pH 7.0) at 27° C. With stirring, the cells were thawed and suspended, then centrifuged and the supernatant discarded. The cell pellet was resuspended in a total volume of 863 mL of potassium phosphate buffer (20 mM, pH 7.0) in a 1.0 L flask, then 133 g (137.0 mL, 1.25 mole) of 2-methyleneglutaronitrile was added with stirring at 27° C. […] Samples (0.100 mL) were withdrawn, diluted 1:10 with water and centrifuged, then 0.150 mL of the supernatant was placed in a Millipore Ultrafree-MC filter unit (0.22 micron) and mixed with 0.150 mL of an aqueous solution of 0.150M N-methylpropionamide (HPLC external standard solution). The resulting solution was filtered and analyzed by HPLC.

[2] = pKa of acid and protonated amine groups / ionization at reaction pH; format: physicochemical; details: calculated, reaction mixture pH of between 9 and 10
[3] = cited from earlier work
[4] = physchem; details: 20 mm phosphate buffer, pH 7, aqueous buffer
[5] = Lange's Handbook of Chemistry, 14th edn.

C=C(C#N)CCC#N [2-methyleneglutaronitrile]
solubility [1]: ≤ 400 mM

N.NCCCCCC(=O)O [6-aminocaproic acid ammonium salt]
fraction of amine groups protonated [2]: approximately half

CN [methylamine]
pKa for the protonated amine (methylamine) ([3]; in water): 10.62

NCCCCCC(=O)O [6-aminocaproic acid]
fraction existing in solution as the ammonium salt of the carboxylic acid [2]: at least 99.997% | pKa of the carboxylic acid group [3, 5]: 4.373 | pKa of the protonated amine group [3, 5]: 10.804

N#CCCCCC#N [adiponitrile]
solubility [4]: ~600 mM (≈ 64.9 mg/mL)
